Experiments:
[1] = Storage stability of bulk sertraline hydrochloride Form II; polymorph content by XRPD; settings: for Polymorph Content of bulk sertraline hydrochloride, content of Form I (in parentheses) / Polymorph Content of bulk sertraline hydrochloride, Polymorphic Form detected (I or II): 40° C., 75% RH; for Polymorph Content of bulk sertraline hydrochloride, content of Form I (in parentheses): Form I relative to all sertraline hydrochloride
Source text: X-Ray powder diffraction data was obtained by using a SCINTAG powder X-Ray diffractometer model X′TRA equipped with a solid state detector. Copper radiation of 1.5418 Å was used. The diffractometer was equipped with a round aluminum sample holder with round zero background quartz plate having a cavity of 25(diameter)*0.5(depth) mm.

[2] = granulation in isopropyl alcohol, ethyl acetate, hexane at 40 E to 60 E C; disclosed in U.S. Pat. No. 5,248,699; cited from earlier work

CN[C@H]1CC[C@@H](c2ccc(Cl)c(Cl)c2)c2ccccc21.Cl [sertraline hydrochloride]
stability during storage under stress conditions ([1]; Form II containing at least about 1% w/w Form I): not stable

CN[C@H]1CC[C@@H](c2ccc(Cl)c(Cl)c2)c2ccccc21.Cl [Form II, (1S-cis)-4-(3,4 dichlorophenyl)-1,2,3,4-tetrahydro-N-methyl-1-naphthalenamine hydrochloride]
result of granulation [2]: conversion to Form I

CN[C@H]1CC[C@@H](c2ccc(Cl)c(Cl)c2)c2ccccc21.Cl [Example 1, (1S-cis)-4-(3,4 dichlorophenyl)-1,2,3,4-tetrahydro-N-methyl-1-naphthalenamine hydrochloride]
Polymorph Content of bulk sertraline hydrochloride, content of Form I (in parentheses) ([1]; 1 month): < 1%
Polymorph Content of bulk sertraline hydrochloride, Polymorphic Form detected (I or II) ([1]; 1 month, hydrochloride): II > I
Polymorph Content of bulk sertraline hydrochloride, content of Form I (in parentheses) ([1]; 2 months): 2%
Polymorph Content of bulk sertraline hydrochloride, Polymorphic Form detected (I or II) ([1]; 2 months, hydrochloride): II > I
Polymorph Content of bulk sertraline hydrochloride, Polymorphic Form detected (I or II) ([1]; 3 months): II > I
Polymorph Content of bulk sertraline hydrochloride, content of Form I (in parentheses) ([1]; 3 months): 2%
Polymorph Content of bulk sertraline hydrochloride, Polymorphic Form detected (I or II) ([1]; 4 months): II > I
Polymorph Content of bulk sertraline hydrochloride, content of Form I (in parentheses) ([1]; 4 months): 4%
Polymorph Content of bulk sertraline hydrochloride, content of Form I (in parentheses) ([1]; t = 0): < 1%
Polymorph Content of bulk sertraline hydrochloride, Polymorphic Form detected (I or II) ([1]; t = 0, hydrochloride): II > I
